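Each compound was tested at five concentrations against cells in 96-well plates for 48 hours. GI50: concentration for 50% inhibition of growth.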 Calls of active or inactive are those of the source. Rule as the data show it: active = GI50 up to about 1.1 µM and inactive = higher.
Columns and labels:
Assay in all cases: NCI tumour cell line growth inhibition, 48 h
K562 = system: K562
Malme-3M = system: Malme-3M
NCI-H522 = system: NCI-H522
COLO 205 = system: COLO 205
OVCAR-8 = system: OVCAR-8
SK-MEL-28 = system: SK-MEL-28
CAKI-1 = system: CAKI-1
KM12 = system: KM12
NCI-H23 = system: NCI-H23
RXF 393 = system: RXF 393
HT-29 = system: HT-29
IGROV-1 = system: IGROV-1
UACC-257 = system: UACC-257
SF-295 = system: SF-295

Row | SMILES | GI50 (K562) | GI50 (Malme-3M) | GI50 (NCI-H522) | GI50 (COLO 205) | GI50 (OVCAR-8) | GI50 (SK-MEL-28) | GI50 (CAKI-1) | GI50 (KM12) | GI50 (NCI-H23) | GI50 (RXF 393) | GI50 (HT-29) | GI50 (IGROV-1) | GI50 (UACC-257) | GI50 (SF-295)
1 | O=c1oc2c3ccc4ccccc4c3n(Cc3nc4ccccc4[nH]3)c2c2ccccc12 | 2.47 µM (inactive) | > 100 µM (inactive) | 4.42 µM (inactive) | 12.7 µM (inactive) | 13.7 µM (inactive) | > 26.7 µM (inactive) | 3.77 µM (inactive) | > 64.4 µM (inactive) | 4.95 µM (inactive) | 9.4 µM (inactive) | 4.48 µM (inactive) | > 29.3 µM (inactive) | 5.01 µM (inactive) | 9.14 µM (inactive)
2 | O/N=C/c1ccc(O)c(O)c1 | 55.8 µM (inactive) | > 100 µM (inactive) | 15.2 µM (inactive) | 55.8 µM (inactive) | > 100 µM (inactive) | > 100 µM (inactive) | 67.8 µM (inactive) | > 100 µM (inactive) | > 100 µM (inactive) | > 100 µM (inactive) | > 100 µM (inactive) | 65 µM (inactive) | > 100 µM (inactive) | > 100 µM (inactive)
3 | COc1cc(-c2cc(-c3cc([N+](=O)[O-])c(/C=N/NC(=O)c4ccncc4)o3)ccc2OC)ccc1C | > 100 µM (inactive) | > 100 µM (inactive) | > 100 µM (inactive) | > 100 µM (inactive) |  | > 100 µM (inactive) | > 100 µM (inactive) |  | > 100 µM (inactive) | > 100 µM (inactive) | > 100 µM (inactive) | > 100 µM (inactive) | > 100 µM (inactive) | > 100 µM (inactive)
4 | CCc1cc(C)cc2[n+]1CC=C2.[O-][Cl+3]([O-])([O-])[O-] |  | 15.9 µM (inactive) | 13.1 µM (inactive) | 21.9 µM (inactive) | 3.97 µM (inactive) | 27.2 µM (inactive) | 28.2 µM (inactive) | 32.9 µM (inactive) | 13.9 µM (inactive) | > 100 µM (inactive) | 19.4 µM (inactive) |  | 3.55 µM (inactive) | 31.6 µM (inactive)
5 | N#CC1C(=O)NC(=O)C1=O (centres undefined) | > 100 µM (inactive) | > 100 µM (inactive) | > 100 µM (inactive) | > 100 µM (inactive) | > 100 µM (inactive) | > 100 µM (inactive) | > 100 µM (inactive) | > 100 µM (inactive) | > 100 µM (inactive) | > 100 µM (inactive) | > 100 µM (inactive) | > 100 µM (inactive) | > 100 µM (inactive) | > 100 µM (inactive)
6 | CC12CC(=O)OC(Cc3ccccc31)O2 (centres undefined) | > 100 µM (inactive) | > 100 µM (inactive) | > 100 µM (inactive) | > 100 µM (inactive) | > 100 µM (inactive) | > 100 µM (inactive) |  | > 100 µM (inactive) | > 100 µM (inactive) | > 100 µM (inactive) | > 100 µM (inactive) | > 100 µM (inactive) | > 100 µM (inactive) | > 100 µM (inactive)
7 | Cc1cc(NS(=O)(=O)c2ccc(NC(=O)c3cccc4c(=O)c5ccccc5[nH]c34)cc2)no1 | 36.1 µM (inactive) | 63.1 µM (inactive) | 14.2 µM (inactive) | 50.5 µM (inactive) | 12.5 µM (inactive) | 41.2 µM (inactive) | 65.8 µM (inactive) | 78.3 µM (inactive) | 60.7 µM (inactive) |  | 43.1 µM (inactive) | 40.5 µM (inactive) | 87.7 µM (inactive) | > 10 µM (inactive)
8 | CCOc1ccc(/C=N\N2C(=O)c3ccccc3C2=O)cc1 | > 100 µM (inactive) | > 100 µM (inactive) |  |  | > 100 µM (inactive) | > 100 µM (inactive) | > 100 µM (inactive) | > 100 µM (inactive) | > 100 µM (inactive) | > 100 µM (inactive) | > 100 µM (inactive) | > 100 µM (inactive) | > 100 µM (inactive) | > 100 µM (inactive)
9 | CCN1/C(=C/C(C)=C/c2sc3ccccc3[n+]2CC)Sc2ccccc21 | 0.034 µM (active) | 0.37 µM (active) | 0.0574 µM (active) | 0.142 µM (active) | 0.0948 µM (active) | 0.0285 µM (active) | 0.203 µM (active) | 0.0641 µM (active) | 0.0415 µM (active) | 0.273 µM (active) | 0.307 µM (active) | 0.279 µM (active) |  | 0.112 µM (active)
10 | O=c1cc(-c2ccc(O)cc2)oc2cc(O)cc(O)c12 [APIGENIN] | 32.7 µM (inactive) | 33.9 µM (inactive) | 15.8 µM (inactive) | 38.9 µM (inactive) |  | 20.3 µM (inactive) |  | 23.1 µM (inactive) | 17.8 µM (inactive) |  |  | 28.6 µM (inactive) | 30.8 µM (inactive) | 27.2 µM (inactive)
11 | O=C(O)CC1CC=C[C@H]2c3cc4c(cc3C(=O)NC12)OCO4 (some centres undefined) | > 75 µM (inactive) | > 75 µM (inactive) | > 75 µM (inactive) | > 75 µM (inactive) | > 75 µM (inactive) | > 75 µM (inactive) |  | > 75 µM (inactive) | > 75 µM (inactive) | > 75 µM (inactive) |  | > 75 µM (inactive) | > 75 µM (inactive) | > 75 µM (inactive)
12 | COC(=O)[C@@]12OC[C@]34C([C@@H](O)C1O)[C@@]1(C)CC(=O)C(O)=C(C)C1C[C@H]3OC(=O)[C@H](OC(=O)CC(C)C(F)(F)F)[C@H]42 (some centres undefined) | 0.0157 µM (active) | 0.0101 µM (active) | 0.00891 µM (active) | 0.101 µM (active) | 0.0574 µM (active) | 0.0121 µM (active) | 0.056 µM (active) | 0.0324 µM (active) | 0.0126 µM (active) | 0.0912 µM (active) | 0.0133 µM (active) | 0.0168 µM (active) | 0.0759 µM (active) | 0.0445 µM (active)
13 | Cn1cc2ccccc2c1-c1nc(F)nc(Oc2ccc3c(c2)CC[C@@H]2C3CC[C@@]3(C)C2CC[C@@H]3O)n1 (some centres undefined) | 4.73 µM (inactive) | 15.5 µM (inactive) | 3.4 µM (inactive) | 21.8 µM (inactive) | 7.45 µM (inactive) | 10.4 µM (inactive) | 11.6 µM (inactive) | 11.4 µM (inactive) | 10.3 µM (inactive) | 3.08 µM (inactive) | 18.7 µM (inactive) | 6.78 µM (inactive) | 21.3 µM (inactive) | 22.6 µM (inactive)
14 | COc1cc(O)c(C(=O)/C=C/c2ccc(OC)c(OCc3ccccc3)c2)c(OC)c1 | 5.93 µM (inactive) |  | 7.46 µM (inactive) | 0.0446 µM (active) | 6.84 µM (inactive) |  | > 100 µM (inactive) | 31 µM (inactive) | 6.52 µM (inactive) | 5.21 µM (inactive) | > 100 µM (inactive) | > 100 µM (inactive) | > 100 µM (inactive) | 0.301 µM (active)
15 | O=CN/C=C/c1ccc(O)c(O)c1 | > 100 µM (inactive) | > 100 µM (inactive) | 52.1 µM (inactive) | > 100 µM (inactive) | > 100 µM (inactive) | > 100 µM (inactive) | > 100 µM (inactive) | > 100 µM (inactive) | > 100 µM (inactive) | > 100 µM (inactive) | > 100 µM (inactive) | > 100 µM (inactive) | > 100 µM (inactive) | > 100 µM (inactive)
16 | CCOC(=O)C(=O)Nc1nc2c(s1)C(=O)c1ccccc1C2=O | 6.03 µM (inactive) | 12.3 µM (inactive) | 14.9 µM (inactive) | 22.5 µM (inactive) | 10.6 µM (inactive) | 14.3 µM (inactive) | 18.5 µM (inactive) | 16 µM (inactive) | 13.5 µM (inactive) |  | 14.4 µM (inactive) | 19.1 µM (inactive) | 16.1 µM (inactive) | 
17 | Cc1ccc(/N=C/c2ccc3c(c2)OCO3)cc1C | > 10 µM (inactive) | > 100 µM (inactive) | > 100 µM (inactive) | > 100 µM (inactive) | > 100 µM (inactive) | > 100 µM (inactive) | > 100 µM (inactive) | > 100 µM (inactive) | > 100 µM (inactive) | > 100 µM (inactive) | > 100 µM (inactive) | > 100 µM (inactive) |  | > 100 µM (inactive)
18 | O=C1CCC2CCOc3ccc(O)c1c32 (centres undefined) | > 100 µM (inactive) | > 100 µM (inactive) | > 100 µM (inactive) | > 100 µM (inactive) | > 100 µM (inactive) | > 100 µM (inactive) |  | > 100 µM (inactive) | > 100 µM (inactive) | > 100 µM (inactive) | > 100 µM (inactive) | > 100 µM (inactive) | > 100 µM (inactive) | > 100 µM (inactive)
19 | O=C1NN=CN2C(=O)CCC12 (centres undefined) | > 100 µM (inactive) |  |  | > 100 µM (inactive) | > 100 µM (inactive) | > 100 µM (inactive) | > 100 µM (inactive) | > 100 µM (inactive) | > 100 µM (inactive) | > 100 µM (inactive) |  | > 100 µM (inactive) | > 100 µM (inactive) | > 100 µM (inactive)
20 | CC(=O)Nc1ccc(S(=O)(=O)N/N=C/c2cc(I)cc([N+](=O)[O-])c2O)cc1 | 57.3 µM (inactive) | 46.3 µM (inactive) |  | > 100 µM (inactive) | > 100 µM (inactive) | 25.2 µM (inactive) | 81.5 µM (inactive) | > 100 µM (inactive) | 29.5 µM (inactive) | 21.5 µM (inactive) | > 100 µM (inactive) | > 100 µM (inactive) | > 100 µM (inactive) | > 100 µM (inactive)
21 | CCOC(=O)c1sc2c(C(=O)OCC)n3ccccc3c2c1N | > 100 µM (inactive) | > 100 µM (inactive) | 20.3 µM (inactive) | > 100 µM (inactive) | 61.9 µM (inactive) | > 100 µM (inactive) | > 100 µM (inactive) | > 100 µM (inactive) | 43.6 µM (inactive) | 20.2 µM (inactive) | > 100 µM (inactive) | > 100 µM (inactive) | > 100 µM (inactive) | 44.6 µM (inactive)
